Molecular target: T1, Δ1-28 Kv3.4 channels (Homo sapiens, UniProt Q03721)
T1 construct: expressed in transfected cells; host or cells: Xenopus oocytes (cRNA injection)
T1 sequence (Q03721 29-635): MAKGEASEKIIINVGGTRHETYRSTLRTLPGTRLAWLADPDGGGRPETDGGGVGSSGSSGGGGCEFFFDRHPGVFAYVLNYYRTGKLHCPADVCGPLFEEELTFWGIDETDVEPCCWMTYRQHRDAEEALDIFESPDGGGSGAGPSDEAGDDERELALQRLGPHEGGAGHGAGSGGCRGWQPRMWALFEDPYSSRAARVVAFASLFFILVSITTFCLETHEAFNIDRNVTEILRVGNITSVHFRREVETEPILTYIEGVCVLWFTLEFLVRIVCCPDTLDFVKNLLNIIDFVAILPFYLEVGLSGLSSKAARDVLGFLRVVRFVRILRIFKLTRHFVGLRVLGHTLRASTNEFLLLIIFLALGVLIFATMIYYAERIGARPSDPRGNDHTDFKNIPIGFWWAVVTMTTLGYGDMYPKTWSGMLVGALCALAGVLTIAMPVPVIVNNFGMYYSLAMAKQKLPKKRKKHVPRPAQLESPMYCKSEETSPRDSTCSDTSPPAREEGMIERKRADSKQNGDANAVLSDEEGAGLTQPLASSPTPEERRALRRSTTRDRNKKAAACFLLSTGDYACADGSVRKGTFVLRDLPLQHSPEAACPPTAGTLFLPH
Assay: TEVC current-voltage relationship of Δ1-28 Kv3.4 in Xenopus oocytes
Type: cell-based
Settings: 1 mM
Experimental: FIG. 6. Opening and block of Kv3.4 by two didabco compounds show voltage-dependency. Normalized I/V relationship for Δ1-28 Kv3.4 currents in oocytes in the absence (control) or presence as indicated of 1 mM JC279.3a or JC638.2a. Peak currents during 2 s pulses to voltages between −80 and +60 mV (protocol upper left insert) were recorded, before and after drug was washed in during successive 0.1 Hz, 2 s pulses from −80 to 0 mV until equilibrium block or opening was observed. Points are means from n=3-16 oocytes; error bars indicate SEM.
Whole-cell two-electrode voltage-clamp (TEVC) recordings were performed on X laevis oocytes expressing cloned Kv2.1, Kv3.4 or Kv4.2 using a Warner OC-725C amplifier and pClamp9 (Axon Instruments, Foster City, Calif.) software. Oocytes were bathed in a small-volume Warner oocyte bath and viewed with a Fisher dissection microscope. Bath solution for whole-cell oocyte recordings was (in mM): 96 NaCl, 4 KCl, 0.7 MgCl2, 1 CaCl2, 10 HEPES (pH 7.4); whole-cell oocyte TEVC pipettes were of 0.2-2 M resistance when filled with 3 M KCl. Experiments were performed 24-48 hours after cRNA injection. For assessment of current-voltage relationships in the absence or presence of dabco derivatives, oocytes were held at −80 mV, stepped for 2 seconds at voltages between −80 mV and +60 mV in 20 mV steps (Kv2.1) or between −80 and +50 mV in 10 mV steps (Kv3.4), then held for 500 ms at −40 mV before returning to the holding potential. For assessment of block during wash-in of dabco derivatives at a single voltage, oocytes were held at −80 mV, and repetitively stepped to 0 mV for 2 s with an interpulse interval of 10 s or 60 s as indicated. A range of concentrations of dabco or dabco derivatives were washed in via the bath solution during repetitive single-voltage pulses (after an initial period of 5 pulses with control solution to ensure current stabilization) until equilibrium block was achieved, to establish dose-responses. Inhibited currents are compared to the current at the end of 5-pulse control period, thus some bar graphs show ‘control’ current values slightly less than 1, and with an error bar, to show how much currents deviate in the absence of drug. Washout was performed after the highest concentration of blocker was washed in. […]
To investigate the mechanism of Kv channel block or opening by didabco compounds, the current-voltage relationship (I/V curve) of Δ1-28 Kv3.4 channels expressed in Xenopus oocytes was assessed using TEVC recording in the absence and presence of a didabco opener (JC279.3a, the 10 CH2-group didabco from FIG. 3) or a didabco blocker (JC638.2a, the para didabco from FIG. 4).

## c1cc(C[N+]23CCN(CC2)CC3)ccc1C[N+]12CCN(CC1)CC2 [JC638.2α, α,α′-[bis(4-aza-1-azoniabicyclo[2.2.2]octanyl)]p-xylene]
  block or opening of Δ1-28 Kv3.4: blocker
Attenuated at more depolarized voltages
  voltage dependence of block or opening of Kv3.4: voltage-dependent

Source: patent US8143254B2, “Methods for modulating ion channels” (Cornell Research Foundation, Inc., priority 2005, dated 2012)
